Assay results as given in patent US10150792B2, “Bismuth-containing compounds, coordination polymers, methods for modulating pharmacokinetic properties of biologically active agents, and methods for treating patients” (priority 2010, dated 2018).

Legend:
[1] = high orally administered doses; cited from earlier work
in vivo = settings: rat
Experimental: Method for Rat Pharmacokinetic Studies: Rat “feed and bleed” studies were performed with LD and synthetically prepared LD:metal complexes wherein key PK parameters, such as maximum concentration (Cmax), AUC, and time of maximum concentration (tmax) were measured vis-à-vis the reference drug, LD.
In each experiment, male Sprague-Dawley rats with jugular vein catheters (250-300 g; n=5-10) are used. These rats were obtained from a commercial source (Harlan Laboratory Animals, Dublin, Va.) and housed individually. Water was available ad libitum. Rats were fed certified rodent chow ad libitum. After arrival, the health of rats was assessed and animals were placed in quarantine for a minimum of five days during which time general health was assessed. At the end of quarantine, rats were moved to permanent animal quarters for access and study.
All studies employed oral dosing using size 9 rodent gelatin capsules from Torpac (Fairfield, N.J.). After fasting overnight, the rats are dosed at time zero with periodic blood sampling from the catheter (5-8 time points between 0 and 24 hours). Blood (200-300 μL) is drawn and collected in heparinized tubes. Plasma is separated by centrifugation and stored at −20° C. until work-up. Plasma samples are then treated according to developed methodology (e.g., FEBS Lett., 2002, 524 (1-3), 199-203), and analyzed (LC/MS/MS) for drug concentrations. Average plasma values (±SEM) for each time are calculated and PK parameters, including Cmax, tmax, and total amount absorbed (AUC0-6h), are determined using standard software.
Each study employs a crossover design whereby the LD and a metal:LD complex are tested in the same rats with a 5-day wash-out period separating the two experiments.

For O=C(O)C(Cl)Cl [DCA, dichloroacetate], the Fraction absorbed [1] is given as 100%.

With N[C@@H](Cc1ccc(O)c(O)c1)C(=O)O [LD, levodopa, reference compound] the Cmax (in vivo; male, Sprague-Dawley, in vivo, po) was 17 µM and the Tmax (in vivo; male, Sprague-Dawley, in vivo, po, 20 mg/kg) was 20 min.

With tris(LD)bismuth oxide [Bi(O)(dopa)3] the “Course of LD plasma levels” value (in vivo; FIG. 13, oral, equivalent to 20 mg/kg LD + carbidopa 10 mg/kg, sampling to 3 hours) was “remained at or near their peak levels for the duration of the study” and the “LD plasma level at 3 hours” value (in vivo; FIGS. 13 and 14, oral, equivalent to 20 mg/kg LD + carbidopa 10 mg/kg) was 10 nmol/mL.
